Results on 21 compounds are retold here after US11649255B2, “Indazoles as hematopoietic progenitor kinase 1 (HPK1) inhibitors and methods using same” (1st Biotherapeutics, Inc., priority 2020, dated 2023).

The target in one assay is recombinant human HPK1 (Homo sapiens (Human), UniProt Q92918). Put plainly: HPK1 kinase assay (ADP-Glo). It counts as biochemical. The settings on record: 25 μM ATP, MBP substrate. The essentials: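 Activity was read as ADP formed, detected by ADP-Glo luminescence after the reaction of 5 ng recombinant human HPK1 with MBP and ATP (stocks 0.5 μg/μl and 25 μM) for 40 min at 30 °C. Buffer was Tris pH 7.5 with MgCl2, BSA and DTT, with compound in 0.5% DMSO. IC50 came from inhibition curves.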
recombinant human HPK1, sequence (Q92918 whole entry): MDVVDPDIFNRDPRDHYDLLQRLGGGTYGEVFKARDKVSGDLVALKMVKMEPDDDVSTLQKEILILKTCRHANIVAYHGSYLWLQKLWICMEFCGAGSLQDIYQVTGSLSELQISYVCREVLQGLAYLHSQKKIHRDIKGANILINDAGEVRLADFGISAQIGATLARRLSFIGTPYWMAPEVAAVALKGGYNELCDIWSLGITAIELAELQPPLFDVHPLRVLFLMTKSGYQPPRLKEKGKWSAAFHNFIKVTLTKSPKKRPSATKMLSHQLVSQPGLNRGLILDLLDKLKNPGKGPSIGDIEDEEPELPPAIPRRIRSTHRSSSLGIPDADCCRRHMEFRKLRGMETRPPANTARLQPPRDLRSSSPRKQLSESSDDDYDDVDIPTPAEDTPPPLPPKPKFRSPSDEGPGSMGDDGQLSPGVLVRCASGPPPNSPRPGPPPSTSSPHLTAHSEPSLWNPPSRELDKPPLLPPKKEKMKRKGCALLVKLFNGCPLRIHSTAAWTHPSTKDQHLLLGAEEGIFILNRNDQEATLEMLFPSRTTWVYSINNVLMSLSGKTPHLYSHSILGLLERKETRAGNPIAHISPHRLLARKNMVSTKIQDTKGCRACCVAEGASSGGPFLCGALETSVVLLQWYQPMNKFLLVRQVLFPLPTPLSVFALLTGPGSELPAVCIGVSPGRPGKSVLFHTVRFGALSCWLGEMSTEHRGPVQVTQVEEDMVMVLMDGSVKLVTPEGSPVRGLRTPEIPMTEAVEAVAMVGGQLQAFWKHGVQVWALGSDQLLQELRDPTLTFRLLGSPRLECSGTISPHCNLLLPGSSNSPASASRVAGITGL
As to `CC(=O)N(CC#N)c1c(F)c(Cl)c(-c2ccn3nc(NC(=O)[C@@H]4C[C@@H]4F)cc3c2)c2cn[nH]c12` [Example 615, (1S,2S)-N-(5-(5-chloro-7-(N-(cyanomethyl)acetamido)-6-fluoro-1H-indazol-4-yl)pyrazolo[1,5-a]pyridin-2-yl)-2-fluorocyclopropane-1-carboxamide], the IC50 was below 100 nM. Still for that read-out and setting: under `CCOc1cc(C)c(-c2ccn3nc(NC(=O)[C@@H]4C[C@@H]4F)cc3c2)c2cn[nH]c12` [Example 511, (1S,2S)-N-(5-(7-ethoxy-5-methyl-1H-indazol-4-yl)pyrazolo[1,5-a]pyridin-2-yl)-2-fluorocyclopropane-1-carboxamide] stands below 100 nM; under `O=C(Nc1nc2ccc(-c3c(Cn4cccn4)ccc4[nH]ncc34)cc2s1)[C@@H]1C[C@@H]1F` [Example 38, (1S,2S)-N-(6-(5-((1H-pyrazol-1-yl)methyl)-1H-indazol-4-yl)benzo[d]thiazol-2-yl)-2-fluorocyclopropane-1-carboxamide], above 1000 nM; under `Nc1c(F)c(Cl)c(-c2ccn3nc(NC(=O)[C@@H]4C[C@@H]4F)cc3c2)c2cn[nH]c12` [Example 510, (1S,2S)-N-(5-(7-amino-5-chloro-6-fluoro-1H-indazol-4-yl)pyrazolo[1,5-a]pyridin-2-yl)-2-fluorocyclopropane-1-carboxamide], below 100 nM. Consider `O=C(Nc1cc2cc(-c3c(Cl)c(F)c(NC4CCC(O)CC4)c4[nH]ncc34)ccn2n1)[C@@H]1C[C@@H]1F` (stereo partly drawn) [Example 517, (1S,2S)-N-(5-(5-chloro-6-fluoro-7-((4-hydroxycyclohexyl)amino)-1H-indazol-4-yl)pyrazolo[1,5-a]pyridin-2-yl)-2-fluorocyclopropane-1-carboxamide], for which the IC50 was below 100 nM. On the same count and under the same terms, under `COC(=O)c1c(F)c(C)c(-c2ccc3nc(NC(=O)[C@@H]4C[C@@H]4F)cn3c2)c2cn[nH]c12` [Example 305, methyl 6-fluoro-4-(2-((1S,2S)-2-fluorocyclopropane-1-carboxamido)imidazo[1,2-a]pyridin-6-yl)-5-methyl-1H-indazole-7-carboxylate] stands below 100 nM; under `O=C(CCO)Nc1c(F)c(Cl)c(-c2ccc3nc(NC(=O)[C@@H]4C[C@@H]4F)cn3c2)c2cn[nH]c12` [Example 369, (1S,2S)-N-(6-(5-chloro-6-fluoro-7-(3-hydroxypropanamido)-1H-indazol-4-yl)imidazo[1,2-a]pyridin-2-yl)-2-fluorocyclopropane-1-carboxamide], below 100 nM. On the same count and under the same terms, the result for `Cc1c(F)c(C)c2[nH]ncc2c1-c1ccc2nc(NC(=O)[C@@H]3C[C@@H]3F)cn2c1` [Example 257, (1S,2S)-2-fluoro-N-(6-(6-fluoro-5,7-dimethyl-1H-indazol-4-yl)imidazo[1,2-a]pyridin-2-yl)cyclopropane-1-carboxamide] reads below 100 nM; that for `CC(=O)Nc1c(F)c(C)c(-c2ccc3nc(NC(=O)[C@@H]4C[C@@H]4F)sc3c2)c2cn[nH]c12` [Example 113, (1S,2S)-N-(6-(7-acetamido-6-fluoro-5-methyl-1H-indazol-4-yl)benzo[d]thiazol-2-yl)-2-fluorocyclopropane-1-carboxamide], below 100 nM; that for `N#Cc1ccc2[nH]ncc2c1-c1ccc2nc(NC(=O)C3CC3)sc2c1` [Example 29, N-(6-(5-cyano-1H-indazol-4-yl)benzo[d]thiazol-2-yl)cyclopropanecarboxamide], 101 to 500 nM. On the same count and under the same terms, the result for `Cc1ccc2[nH]ncc2c1-c1ccc2nc(NC(=S)C3CC3)sc2c1` [Example 32, N-(6-(5-methyl-1H-indazol-4-yl)benzo[d]thiazol-2-yl)cyclopropanecarbothioamide] reads 101 to 500 nM.

`CNNc1c(F)c(Cl)c(-c2ccc3nc(NC(=O)[C@@H]4C[C@@H]4F)sc3n2)c2cn[nH]c12` [Example 191, (1S,2S)-N-(5-(5-chloro-6-fluoro-7-(2-methylhydrazineyl)-1H-indazol-4-yl)thiazolo[5,4-b]pyridin-2-yl)-2-fluorocyclopropane-1-carboxamide]: the IC50 is below 100 nM. On the same count and under the same terms, under `Cc1ccc2[nH]ncc2c1-c1ccc2nc(NC(=O)C3CC(F)C3)sc2c1` [Example 7, (1R,3R)-3-fluoro-N-(6-(5-methyl-1H-indazol-4-yl)benzo[d]thiazol-2-yl)cyclobutane-1-carboxamide] stands 101 to 500 nM; under `CCOc1c(F)c(Cl)c(-c2ccc3nc(NC(=O)[C@@H]4C[C@@H]4F)sc3c2)c2cn[nH]c12` [Example 81, (1S,2S)-N-(6-(5-chloro-7-ethoxy-6-fluoro-1H-indazol-4-yl)benzo[d]thiazol-2-yl)-2-fluorocyclopropane-1-carboxamide], below 100 nM; under `CC(=O)N(C)C(C)c1c(F)c(Cl)c(-c2ccc3nc(NC(=O)[C@@H]4C[C@@H]4F)cn3c2)c2cn[nH]c12` (stereo partly drawn) [Example 412, (1S,2S)-N-(6-(5-chloro-6-fluoro-7-(1-(N-methylacetamido)ethyl)-1H-indazol-4-yl)imidazo[1,2-a]pyridin-2-yl)-2-fluorocyclopropane-1-carboxamide], below 100 nM.

The next assay concerns human peripheral blood pan T cells. Kind of assay: IFNγ and IL-2 analysis of human peripheral pan T cells. It is filed as cell-based. The settings on record: T-cell, IFNγ secretion, CD3/CD28 bead stimulation, 100 nM Prostaglandin E2, 24 hr, read-out: IFNγ (EC50). As to the method: IFNγ and IL-2 Analysis of Human Peripheral Pan T Cells
Human peripheral blood pan T cells were purchased from STEMCELL™ Technologies Inc. Human peripheral blood pan T cells were thawed and suspended in DMEM media (10% FBS and 10 Penicillin/Streptomycin). 8×10^4 T cells were seeded in 96-well plate and incubated with various concentration of compounds and 100 nM Prostaglandin E2 for 1 hr. T cells were stimulated with Dynabeads Human T-Activator CD3/CD28 (Life Technologies) at a 1:3 cells: beads ratio. […] Data were analyzed with an MESO Quickplex SQ120 (Mesoscale Discovery).
In Table 3, the values represent + for >1000 nM, ++ 200-1,000 nM, +++ for <200 nM and − for not determined.
With `CC(=O)N(C)c1c(F)c(C)c(-c2ccn3nc(NC(=O)[C@@H]4C[C@@H]4F)cc3c2)c2cn[nH]c12` [Example 550, (1S,2S)-2-fluoro-N-(5-(6-fluoro-5-methyl-7-(N-methylacetamido)-1H-indazol-4-yl)pyrazolo[1,5-a]pyridin-2-yl)cyclopropane-1-carboxamide], the EC50 was 200 to 1000 nM. Consider `CSc1c(F)c(SC)c2[nH]ncc2c1-c1ccc2nc(NC(=O)[C@@H]3C[C@@H]3F)sc2c1` [Example 111, (1S,2S)-2-fluoro-N-(6-(6-fluoro-5,7-bis(methylthio)-1H-indazol-4-yl)benzo[d]thiazol-2-yl)cyclopropane-1-carboxamide], for which the EC50 was 200 to 1000 nM.

Consider `CSc1c(F)c(C)c(-c2ccn3nc(NC(=O)C4CC4)cc3c2)c2cn[nH]c12` [Example 562, N-(5-(6-fluoro-5-methyl-7-(methylthio)-1H-indazol-4-yl)pyrazolo[1,5-a]pyridin-2-yl)cyclopropanecarboxamide], for which the EC50 fell in the range of 200 to 1000 nM. The same measure, in the same setting: the result for `CCN(C)c1c(F)c(C)c(-c2ccc3nc(NC(=O)[C@@H]4C[C@@H]4F)cn3c2)c2cn[nH]c12` [Example 330, (1S,2S)-N-(6-(7-(ethyl(methyl)amino)-6-fluoro-5-methyl-1H-indazol-4-yl)imidazo[1,2-a]pyridin-2-yl)-2-fluorocyclopropane-1-carboxamide] reads 200 to 1000 nM; that for `CSc1c(F)c(C)c(-c2ccc3nc(NC(=O)[C@@H]4C[C@@H]4F)sc3n2)c2cn[nH]c12` [Example 173, (1S,2S)-2-fluoro-N-(5-(6-fluoro-5-methyl-7-(methylthio)-1H-indazol-4-yl)thiazolo[5,4-b]pyridin-2-yl)cyclopropane-1-carboxamide], 200 to 1000 nM; that for `CSc1c(F)c(C)c(-c2ccn3nc(NC(=O)[C@H]4C[C@H]4F)cc3c2)c2cn[nH]c12` [Example 574, (1R,2R)-2-fluoro-N-(5-(6-fluoro-5-methyl-7-(methylthio)-1H-indazol-4-yl)pyrazolo[1,5-a]pyridin-2-yl)cyclopropane-1-carboxamide], 200 to 1000 nM.

Still in this assay, the particulars now being: T-cell, IL-2 secretion, CD3/CD28 bead stimulation, 100 nM Prostaglandin E2, 24 hr, read-out: IL-2 (EC50).
As for `CC(=O)N(C)c1c(F)c(C)c(-c2ccn3nc(NC(=O)[C@@H]4C[C@@H]4F)cc3c2)c2cn[nH]c12` [Example 550, (1S,2S)-2-fluoro-N-(5-(6-fluoro-5-methyl-7-(N-methylacetamido)-1H-indazol-4-yl)pyrazolo[1,5-a]pyridin-2-yl)cyclopropane-1-carboxamide], the EC50 was 200 to 1000 nM. Same read-out and setting: under `CCN(C)c1c(F)c(C)c(-c2ccc3nc(NC(=O)[C@@H]4C[C@@H]4F)cn3c2)c2cn[nH]c12` [Example 330, (1S,2S)-N-(6-(7-(ethyl(methyl)amino)-6-fluoro-5-methyl-1H-indazol-4-yl)imidazo[1,2-a]pyridin-2-yl)-2-fluorocyclopropane-1-carboxamide] stands 200 to 1000 nM.

Consider `CSc1c(F)c(C)c(-c2ccn3nc(NC(=O)[C@H]4C[C@H]4F)cc3c2)c2cn[nH]c12` [Example 574, (1R,2R)-2-fluoro-N-(5-(6-fluoro-5-methyl-7-(methylthio)-1H-indazol-4-yl)pyrazolo[1,5-a]pyridin-2-yl)cyclopropane-1-carboxamide], for which the EC50 is 200 to 1000 nM.
